# Measured values: patent publication US10221174B2, “N-(phenylsulfonyl)benzamides and related compounds as BCL-2 inhibitors” (THE REGENTS OF THE UNIVERSITY OF MICHIGAN, priority 2016, dated 2019)
# Like-named read-outs stand apart in the source and are kept apart here.
# Tests used:
# Bcl-2 = Bcl-2 (Homo sapiens (Human), UniProt P10415)
# Experimental: (§1) Fluorescence polarization values were measured using the Infinite M-1000 plate reader (Tecan U.S., Research Triangle Park, N.C.) in Microfluor 1 96-well, black, round-bottom plates (Thermo Scientific). […] Plates were mixed and incubated at room temperature for 1 hour with gentle shaking to assure equilibrium. […] Equilibrium dissociation constants (Kd) were then calculated by fitting the sigmoidal dose-dependent FP increases as a function of protein concentrations using Graphpad Prism 5.0 software (Graphpad Software, San Diego, Calif.).
# (§2) Mixtures of 5 μl of the tested inhibitors in DMSO and 120 μl of pre-incubated protein/probe complexes in the assay buffer were added into assay plates and incubated at room temperature for 2 hours with gentle shaking. […] FP values were measured as described above. IC50 values were determined by nonlinear regression fitting of the competition curves.
# Bcl-xL = Bcl-xL (Homo sapiens (Human), UniProt Q07817); experiment: Fluorescence polarization competitive binding assay, Bcl-xL; conditions: FP competition, 10 nM Bcl-xL, 2 nM Flu-BAK probe; read-out: Inhibitory activity IC50 Bcl-xL
# Sequence of Bcl-xL (Q07817 whole entry): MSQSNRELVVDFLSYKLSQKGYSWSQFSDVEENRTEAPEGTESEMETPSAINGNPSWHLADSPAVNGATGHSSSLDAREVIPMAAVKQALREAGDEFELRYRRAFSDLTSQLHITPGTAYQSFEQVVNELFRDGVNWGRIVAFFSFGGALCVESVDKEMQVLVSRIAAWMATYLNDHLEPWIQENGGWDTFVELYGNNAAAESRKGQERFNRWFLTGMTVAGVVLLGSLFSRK
# Experimental: as §1, §2
# Molm13 cells = experiment: Molm13 cell viability, CCK-8 assay; assay type: cell-based; conditions: Homo sapiens, MOLM-13, 96 h, CCK-8, 4 days, read-out: Molm13 IC50 (Bcl-2 dependent)
# Experimental: Molm13 cells were obtained from Deutsche Sammlung von Mikroorganismen und Zellkulturen GmbH (DSMZ). They were used within three months of thawing fresh vials. Cells were maintained in the recommended culture medium with 10% FBS at 37° C. and an atmosphere of 5% CO2.
# 200 μL of a Molm13 cell suspension (10000 cells/well) in culture medium were seeded into 96-well plates and cultured overnight. Each tested compound was serially diluted in culture medium, and 20 μL of the compound dilution was added to the corresponding well of the cell plate. After the addition of the tested compound, the cells were incubated at 37° C. in an atmosphere of 5% CO2 for 4 days. […] The plates were read at 450 nm on the microplate spectrophotometer (Epoch2, BioTek). The readings were normalized to the vehicle cells, and the IC50 was calculated by nonlinear regression analysis using GraphPad Prism 5 software.
# RS4;11 cells = experiment: RS4;11 cell viability, CCK-8 assay; assay type: cell-based; conditions: Homo sapiens, RS4-11, 96 h, CCK-8, 4 days, read-out: RS4, 11 IC50 (Bcl-2 dependent)
# Experimental: RS4;11 cells were obtained from American Type Culture Collection (ATCC). They were used within three months of thawing fresh vials. Cells were maintained in the recommended culture medium with 10% FBS at 37° C. and an atmosphere of 5% CO2.
# The effect of representative Compounds of the Disclosure on cell viability was determined using Cell Counting Kit-8 (CCK-8) assay (Dojindo, Rockville, Md.) according to the manufacturer's instructions. 200 μL of a RS4;11 cell suspension (10000 cells/well) in culture medium were seeded into 96-well plates and cultured overnight. Each tested compound was serially diluted in culture medium, and 20 μL of the compound dilution was added to the corresponding well of the cell plate. After the addition of the tested compound, the cells were incubated at 37° C. in an atmosphere of 5% CO2 for 4 days. At the end of 4 days, 10 μL of CCK-8 solution was added to each well of the plate and incubated for 1-4 hours. The plates were read at 450 nm on the microplate spectrophotometer (Epoch2, BioTek). The readings were normalized to the vehicle cells, and the IC50 was calculated by nonlinear regression analysis using GraphPad Prism 5 software.
# Pharmacokinetics in rats = assay type: in vivo
# Experimental: The pharmacokinetics of ABT-199 and representative Compounds of the Disclosure were evaluated in rats at an IV dose of 2 mg/kg and an oral dose of 20 mg/kg.
# Mcl-1 = Mcl-1 (Homo sapiens (Human), UniProt Q07820); experiment: FP saturation binding of fluorescent probe to Mcl-1; conditions: 2 nM probe
# Sequence of Mcl-1 (Q07820 whole entry): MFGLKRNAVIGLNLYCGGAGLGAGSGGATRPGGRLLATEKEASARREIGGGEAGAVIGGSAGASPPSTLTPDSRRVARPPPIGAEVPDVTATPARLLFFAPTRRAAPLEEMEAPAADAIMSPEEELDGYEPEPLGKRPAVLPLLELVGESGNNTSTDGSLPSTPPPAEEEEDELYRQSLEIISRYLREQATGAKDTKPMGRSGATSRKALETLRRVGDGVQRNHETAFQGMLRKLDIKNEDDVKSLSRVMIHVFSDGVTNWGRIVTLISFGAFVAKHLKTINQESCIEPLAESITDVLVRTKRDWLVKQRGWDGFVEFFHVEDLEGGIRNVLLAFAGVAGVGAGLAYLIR
# Experimental: as §1
# Sequence of Bcl-2 (P10415 whole entry): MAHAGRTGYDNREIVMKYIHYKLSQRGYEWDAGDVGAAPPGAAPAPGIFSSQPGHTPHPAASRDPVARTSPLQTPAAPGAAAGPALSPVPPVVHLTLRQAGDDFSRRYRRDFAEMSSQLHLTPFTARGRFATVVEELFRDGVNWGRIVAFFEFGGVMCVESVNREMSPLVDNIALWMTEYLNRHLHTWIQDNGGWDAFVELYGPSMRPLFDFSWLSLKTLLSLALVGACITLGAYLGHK
Compound,IC50 (Bcl-2) [nM],IC50 (Bcl-xL) [nM],IC50 (Molm13 cells) [nM],IC50 (RS4;11 cells) [nM],other results
"O=C(NS(=O)(=O)c1ccc(NCC2CCOCC2)c([N+](=O)[O-])c1)c1ccc(N2CCN(CC3=C(c4ccc(Cl)cc4)CC4(CC3)COC4)CC2)cc1Oc1cnc2[nH]ccc2c1 [Cpd. No. 2, 2-((1H-pyrrolo[2,3-b]pyridin-5-yl)oxy)-4-(4-((6-(4-chlorophenyl)-2-oxaspiro[3.5]non-6-en-7-yl)methyl)piperazin-1-yl)-N-((3-nitro-4-(((tetrahydro-2H-pyran-4-yl)methyl)amino)phenyl)sulfonyl)benzamide]",0.76,10.6,85,5.5,–
"O=C(NS(=O)(=O)c1ccc(NCC2CCOCC2)c([N+](=O)[O-])c1)c1ccc(N2CCN(CC3=C(c4ccc(Cl)cc4)CC4(CCC4)CC3)CC2)cc1Oc1cnc2[nH]ccc2c1 [Cpd. No. 3, 2-((1H-pyrrolo[2,3-b]pyridin-5-yl)oxy)-4-(4-((6-(4-chlorophenyl)spiro[3.5]non-6-en-7-yl)methyl)piperazin-1-yl)-N-((3-nitro-4-(((tetrahydro-2H-pyran-4-yl)methyl)amino)phenyl)sulfonyl)benzamide]",1.2,13.7,–,26,"AUC0-∞ IV (Pharmacokinetics in rats; IV 2 mg/kg): 2683 n · gh/mL; AUC0-∞ PO (Pharmacokinetics in rats; oral 20 mg/kg): 7775 n · gh/mL; F(AUC0-t) (Pharmacokinetics in rats; oral 20 mg/kg vs IV 2 mg/kg): 29.0%; MRT inf (Pharmacokinetics in rats; rat, in vivo, IV 2 mg/kg): 2.37 h; AUC(0-t) (Pharmacokinetics in rats; rat, in vivo, IV 2 mg/kg, read-out: AUC0-t IV): 2660 ng·h/mL; clearance (Pharmacokinetics in rats; rat, in vivo, IV 2 mg/kg, read-out: CL (iv) (converted)): 12.8 mL/min/kg; Cmax (Pharmacokinetics in rats; rat, in vivo, IV 2 mg/kg, read-out: Cmax IV): 4200 ng/mL; Tmax (Pharmacokinetics in rats; rat, in vivo, IV 2 mg/kg, read-out: Tmax IV): 0.083 h; Vd (Pharmacokinetics in rats; rat, in vivo, IV 2 mg/kg, read-out: Vss (iv)): 1.86 L/kg; half-life (Pharmacokinetics in rats; rat, in vivo, IV 2 mg/kg, read-out: t1/2 IV (converted)): 4.94 h; AUC(0-t) (Pharmacokinetics in rats; rat, in vivo, oral 20 mg/kg, read-out: AUC0-t PO): 7630 ng·h/mL; Cmax (Pharmacokinetics in rats; rat, in vivo, oral 20 mg/kg, read-out: Cmax PO): 1320 ng/mL; Tmax (Pharmacokinetics in rats; rat, in vivo, oral 20 mg/kg, read-out: Tmax PO): 2 h; half-life (Pharmacokinetics in rats; rat, in vivo, oral 20 mg/kg, read-out: t1/2 PO (converted)): 4.46 h"
"O=C(NS(=O)(=O)c1cccc([N+](=O)[O-])c1)c1ccc(N2CCN(CC3=C(c4ccc(Cl)cc4)CC4(CCC4)CC3)CC2)cc1Oc1cnc2[nH]ccc2c1 [Cpd. No. 4, 2-((1H-pyrrolo[2,3-b]pyridin-5-yl)oxy)-4-(4-((6-(4-chlorophenyl)spiro[3.5]non-6-en-7-yl)methyl)piperazin-1-yl)-N-((3-nitrophenyl)sulfonyl)benzamide]",3.1,8.6,–,427,–
"O=C(NS(=O)(=O)c1ccc(NC[C@@H]2COCCO2)c([N+](=O)[O-])c1)c1ccc(C2=CCN(CC3=C(c4ccc(Cl)cc4)CC4(CCC4)CC3)CC2)cc1Oc1cnc2[nH]ccc2c1 [compound 1, (R)-N-((4-(((1,4-dioxan-2-yl)methyl)amino)-3-nitrophenyl)sulfonyl)-2-((1H-pyrrolo[2,3-b]pyridin-5-yl)oxy)-4-(1-((6-(4-chlorophenyl)spiro[3.5]non-6-en-7-yl)methyl)-1,2,3,6-tetrahydropyridin-4-yl)benzamide]",–,–,47,3,–
"CNc1ccc(S(=O)(=O)NC(=O)c2ccc(N3CCN(CC4=C(c5ccc(Cl)cc5)CC5(CCC5)CC4)CC3)cc2Oc2cnc3[nH]ccc3c2)cc1[N+](=O)[O-] [compound 10, 2-((1H-pyrrolo[2,3-b]pyridin-5-yl)oxy)-4-(4-((6-(4-chlorophenyl)spiro[3.5]non-6-en-7-yl)methyl)piperazin-1-yl)-N-((4-(methylamino)-3-nitrophenyl)sulfonyl)benzamide]",3.3,14,182,32,–
"CN(C)c1ccc(S(=O)(=O)NC(=O)c2ccc(N3CCN(CC4=C(c5ccc(Cl)cc5)CC5(CCC5)CC4)CC3)cc2Oc2cnc3[nH]ccc3c2)cc1[N+](=O)[O-] [compound 11, 2-((1H-pyrrolo[2,3-b]pyridin-5-yl)oxy)-4-(4-((6-(4-chlorophenyl)spiro[3.5]non-6-en-7-yl)methyl)piperazin-1-yl)-N-((4-(dimethylamino)-3-nitrophenyl)sulfonyl)benzamide]",11.9,77.8,1020,61,–
"O=C(NS(=O)(=O)c1ccc(NCC2CCOCC2)c([N+](=O)[O-])c1)c1ccc(C2CCN(CC3=C(c4ccc(Cl)cc4)CC4(CCC4)CC3)CC2)cc1Oc1cnc2[nH]ccc2c1 [compound 12, 2-((1H-pyrrolo[2,3-b]pyridin-5-yl)oxy)-4-(1-((6-(4-chlorophenyl)spiro[3.5]non-6-en-7-yl)methyl)piperidin-4-yl)-N-((3-nitro-4-(((tetrahydro-2H-pyran-4-yl)methyl)amino)phenyl)sulfonyl)benzamide]",4.4,–,253,78,–
"CC(C)c1nc2cc(S(=O)(=O)NC(=O)c3ccc(N4CCN(CC5=C(c6ccc(Cl)cc6)CC6(CCC6)CC5)CC4)cc3Oc3cnc4[nH]ccc4c3)cc([N+](=O)[O-])c2[nH]1 [compound 58, 2-((1H-pyrrolo[2,3-b]pyridin-5-yl)oxy)-4-(4-((6-(4-chlorophenyl)spiro[3.5]non-6-en-7-yl)methyl)piperazin-1-yl)-N-((2-isopropyl-7-nitro-1H-benzo[d]imidazol-5-yl)sulfonyl)benzamide]",3.8,19.2,250,35,–
"O=C(NS(=O)(=O)c1cc([N+](=O)[O-])c2[nH]c(C3CC3)nc2c1)c1ccc(N2CCN(CC3=C(c4ccc(Cl)cc4)CC4(CCC4)CC3)CC2)cc1Oc1cnc2[nH]ccc2c1 [compound 59, 2-((1H-pyrrolo[2,3-b]pyridin-5-yl)oxy)-4-(4-((6-(4-chlorophenyl)spiro[3.5]non-6-en-7-yl)methyl)piperazin-1-yl)-N-((2-cyclopropyl-7-nitro-1H-benzo[d]imidazol-5-yl)sulfonyl)benzamide]",5,20.7,468,65,–
"O=C(NS(=O)(=O)c1cc([N+](=O)[O-])c2nn(CC3CCOCC3)cc2c1)c1ccc(N2CCN(CC3=C(c4ccc(Cl)cc4)CC4(CCC4)CC3)CC2)cc1Oc1cnc2[nH]ccc2c1 [compound 61, 2-((1H-pyrrolo[2,3-b]pyridin-5-yl)oxy)-4-(4-((6-(4-chlorophenyl)spiro[3.5]non-6-en-7-yl)methyl)piperazin-1-yl)-N-((7-nitro-2-((tetrahydro-2H-pyran-4-yl)methyl)-2H-indazol-5yl)sulfonyl)benzamide]",–,13.1,–,43,–
"O=C(NS(=O)(=O)c1cc([N+](=O)[O-])c2cn(CC3CCOCC3)nc2c1)c1ccc(N2CCN(CC3=C(c4ccc(Cl)cc4)CC4(CCC4)CC3)CC2)cc1Oc1cnc2[nH]ccc2c1 [compound 63, 2-((1H-pyrrolo[2,3-b]pyridin-5-yl)oxy)-4-(4-((6-(4-chlorophenyl)spiro[3.5]non-6-en-7-yl)methyl)piperazin-1-yl)-N-((4-nitro-2-((tetrahydro-2H-pyran-4-yl)methyl)-2H-indazol-6-yl)sulfonyl)benzamide]",1.3,7.1,–,55,–
"O=C(NS(=O)(=O)c1cc([N+](=O)[O-])c2cn(C3CCOCC3)nc2c1)c1ccc(N2CCN(CC3=C(c4ccc(Cl)cc4)CC4(CCC4)CC3)CC2)cc1Oc1cnc2[nH]ccc2c1 [compound 65, 2-((1H-pyrrolo[2,3-b]pyridin-5-yl)oxy)-4-(4-((6-(4-chlorophenyl)spiro[3.5]non-6-en-7-yl)methyl)piperazin-1-yl)-N-((4-nitro-2-(tetrahydro-2H-pyran-4-yl)-2H-indazol-6-yl)sulfonyl)benzamide]",1.4,9.9,–,11,–
"Flu-BID: Fluorescein labeled BID (79-99) peptide, fluorescent probe in FP assay for Mcl-1",–,–,–,–,Kd (Mcl-1): 6.9 ± 0.9 nM
